Assays:
Format in all cases: in vivo
[1] = test system: Phytophthora infestans; assay: whole plant or invertebrate; conditions: in Solanum lycopersicum, 96 h, read-out: Determination of control effect (preventive value)
[2] = test system: Sphaerotheca fuliginea; assay: Test of examining control effect on Sphaerotheca fuliginea (potted cucumber plants); conditions: Podosphaera fuliginea, 336 h; 10% wettable powder adjusted to 125 ppm, 15 ml/pot sprayed on potted cucumber plants one day before spray inoculation; assessed after 14 days in greenhouse; read-out: Determination of control effect (preventive value) on Sphaerotheca fuliginea
In short: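 Cucumber plants (Sagamihanjiro, 2nd leaf stage) sprayed with 125 ppm compound (from 10% wettable powder), inoculated one day later with S. fuliginea conidia (1.0×10^5 cells/ml); lesion area scored after 14 days in greenhouse. Preventive value vs untreated; ≥60% high, <60% low control.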

[3] = test system: Pseudoperonospora cubensis; assay: Test of examining control effect on Pseudoperonospora cubensis (potted cucumber plants); conditions: 96 h, 10% wettable powder adjusted to 125 ppm, 15 ml/pot sprayed on potted cucumber plants one day before spray inoculation, assessed after 1 day wet chamber and 3 days greenhouse, read-out: Determination of control effect (preventive value) on Pseudoperonospora cubensis
In short: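 Cucumber plants (Sagamihanjiro, 2.5-leaf stage) sprayed with 125 ppm compound solution from 10% wettable powder, 15 ml/pot. One day later, spray-inoculated with P. cubensis conidia (1.0×10^4 cells/ml), kept 1 day at 21° C wet, then 3 days in greenhouse. Preventive value derived from lesion area relative to untreated plants.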

## FC(F)(F)c1cc(Cl)ccc1C#CCCNc1ncnc2ccccc12 [compound 178]
[1]
  pest or weed control at 125 ppm: 60 to 100%
[2]
  pest or weed control at 125 µg/mL: 60 to 100%
[3]
  pest or weed control at 125 µg/mL: 60 to 100%

## Cc1ccc(C#CCCNc2ncnc3ccccc23)c(C)c1 [compound 180]
[1]
  pest or weed control at 125 ppm: 60 to 100%
[2]
  pest or weed control at 125 µg/mL: 60 to 100%
[3]
  pest or weed control at 125 µg/mL: 60 to 100%

## Cc1cc(C)c(C#CCCNc2ncnc3ccccc23)c(C)c1 [compound 181]
[1]
  pest or weed control at 125 ppm: 0 to 60%
[2]
  pest or weed control at 125 µg/mL: 60 to 100%
[3]
  pest or weed control at 125 µg/mL: 60 to 100%

## FC(F)(F)c1ccc(C#CCCNc2ncnc3ccccc23)c(Cl)c1 [compound 182]
[1]
  pest or weed control at 125 ppm: 0 to 60%
[2]
  pest or weed control at 125 µg/mL: 60 to 100%
[3]
  pest or weed control at 125 µg/mL: 60 to 100%

## COc1ccc2cc(C#CCCNc3ncnc4ccccc34)ccc2c1 [compound 184]
[1]
  pest or weed control at 125 ppm: 60 to 100%
[2]
  pest or weed control at 125 µg/mL: 60 to 100%
[3]
  pest or weed control at 125 µg/mL: 60 to 100%

## COCc1ccc2ccccc2c1C#CCCNc1ncnc2ccccc12 [compound 185]
[1]
  pest or weed control at 125 ppm: 0 to 60%
[2]
  pest or weed control at 125 µg/mL: 0 to 60%
[3]
  pest or weed control at 125 µg/mL: 60 to 100%

## Cc1ccc(Oc2ccc(C#CCCNc3ncnc4ccccc34)cc2)cc1 [compound 186]
[1]
  pest or weed control at 125 ppm: 0 to 60%
[2]
  pest or weed control at 125 µg/mL: 60 to 100%
[3]
  pest or weed control at 125 µg/mL: 0 to 60%

## N#Cc1cc(C(F)(F)F)ccc1C#CCCNc1ncnc2ccccc12 [compound 187]
[1]
  pest or weed control at 125 ppm: 0 to 60%
[2]
  pest or weed control at 125 µg/mL: 0 to 60%
[3]
  pest or weed control at 125 µg/mL: 60 to 100%

## C(#Cc1ccc2ccccc2n1)CCNc1ncnc2ccccc12 [compound 188]
[1]
  pest or weed control at 125 ppm: 0 to 60%
[2]
  pest or weed control at 125 µg/mL: 0 to 60%
[3]
  pest or weed control at 125 µg/mL: 60 to 100%

## C(#Cc1ccnc2ccccc12)CCNc1ncnc2ccccc12 [compound 189]
[1]
  pest or weed control at 125 ppm: 0 to 60%
[2]
  pest or weed control at 125 µg/mL: 60 to 100%
[3]
  pest or weed control at 125 µg/mL: 60 to 100%

## C(#Cc1ccc2ncccc2c1)CCNc1ncnc2ccccc12 [compound 190]
[1]
  pest or weed control at 125 ppm: 0 to 60%
[2]
  pest or weed control at 125 µg/mL: 0 to 60%
[3]
  pest or weed control at 125 µg/mL: 60 to 100%

## C(#Cc1cccc2ncccc12)CCNc1ncnc2ccccc12 [compound 191]
[1]
  pest or weed control at 125 ppm: 0 to 60%
[2]
  pest or weed control at 125 µg/mL: 0 to 60%
[3]
  pest or weed control at 125 µg/mL: 60 to 100%

## C(#Cc1cncc2ccccc12)CCNc1ncnc2ccccc12 [compound 192]
[1]
  pest or weed control at 125 ppm: 0 to 60%
[2]
  pest or weed control at 125 µg/mL: 0 to 60%
[3]
  pest or weed control at 125 µg/mL: 60 to 100%

## Fc1ccc(C#CCCNc2ncnc3ccccc23)cn1 [compound 194]
[1]
  pest or weed control at 125 ppm: 0 to 60%
[2]
  pest or weed control at 125 µg/mL: 60 to 100%
[3]
  pest or weed control at 125 µg/mL: 60 to 100%

## Clc1cc(C#CCCNc2ncnc3ccccc23)ccn1 [compound 196]
[1]
  pest or weed control at 125 ppm: 0 to 60%
[2]
  pest or weed control at 125 µg/mL: 60 to 100%
[3]
  pest or weed control at 125 µg/mL: 60 to 100%

## FC(F)(F)c1ccc(C#CCCNc2ncnc3ccccc23)nc1 [compound 197]
[1]
  pest or weed control at 125 ppm: 0 to 60%
[2]
  pest or weed control at 125 µg/mL: 60 to 100%
[3]
  pest or weed control at 125 µg/mL: 60 to 100%

## COc1cc(C#CCCNc2ncnc3ccccc23)ccn1 [compound 199]
[1]
  pest or weed control at 125 ppm: 60 to 100%
[2]
  pest or weed control at 125 µg/mL: 60 to 100%
[3]
  pest or weed control at 125 µg/mL: 60 to 100%

## Cc1cccc(C#CCCNc2ncnc3ccccc23)n1 [compound 200]
[1]
  pest or weed control at 125 ppm: 60 to 100%
[2]
  pest or weed control at 125 µg/mL: 60 to 100%
[3]
  pest or weed control at 125 µg/mL: 60 to 100%

## Cn1cc(C#CCCNc2ncnc3ccccc23)ccc1=O [compound 203]
[1]
  pest or weed control at 125 ppm: 0 to 60%
[2]
  pest or weed control at 125 µg/mL: 0 to 60%
[3]
  pest or weed control at 125 µg/mL: 60 to 100%

## C(#Cc1cccs1)CCNc1ncnc2ccccc12 [compound 204]
[1]
  pest or weed control at 125 ppm: 60 to 100%
[2]
  pest or weed control at 125 µg/mL: 60 to 100%
[3]
  pest or weed control at 125 µg/mL: 60 to 100%

## C(#Cc1ccsc1)CCNc1ncnc2ccccc12 [compound 205]
[1]
  pest or weed control at 125 ppm: 60 to 100%
[2]
  pest or weed control at 125 µg/mL: 60 to 100%
[3]
  pest or weed control at 125 µg/mL: 60 to 100%

## Cc1ccc(C#CCCNc2ncnc3ccccc23)s1 [compound 206]
[1]
  pest or weed control at 125 ppm: 60 to 100%
[2]
  pest or weed control at 125 µg/mL: 0 to 60%
[3]
  pest or weed control at 125 µg/mL: 60 to 100%

## COCc1ccsc1C#CCCNc1ncnc2ccccc12 [compound 207]
[1]
  pest or weed control at 125 ppm: 60 to 100%
[2]
  pest or weed control at 125 µg/mL: 60 to 100%
[3]
  pest or weed control at 125 µg/mL: 60 to 100%

## Cc1ccsc1C#CCCNc1ncnc2ccccc12 [compound 208]
[1]
  pest or weed control at 125 ppm: 60 to 100%
[2]
  pest or weed control at 125 µg/mL: 60 to 100%
[3]
  pest or weed control at 125 µg/mL: 60 to 100%

## C(#Cc1cscn1)CCNc1ncnc2ccccc12 [compound 210]
[1]
  pest or weed control at 125 ppm: 60 to 100%
[2]
  pest or weed control at 125 µg/mL: 60 to 100%
[3]
  pest or weed control at 125 µg/mL: 60 to 100%

## Cc1nc(C#CCCNc2ncnc3ccccc23)cs1 [compound 211]
[1]
  pest or weed control at 125 ppm: 60 to 100%
[2]
  pest or weed control at 125 µg/mL: 60 to 100%
[3]
  pest or weed control at 125 µg/mL: 60 to 100%

## COc1nc(C#CCCNc2ncnc3ccccc23)cs1 [compound 212]
[1]
  pest or weed control at 125 ppm: 60 to 100%
[2]
  pest or weed control at 125 µg/mL: 60 to 100%
[3]
  pest or weed control at 125 µg/mL: 60 to 100%

## COc1ccccc1Oc1nc(C#CCCNc2ncnc3ccccc23)cs1 [compound 215]
[1]
  pest or weed control at 125 ppm: 60 to 100%
[2]
  pest or weed control at 125 µg/mL: 60 to 100%
[3]
  pest or weed control at 125 µg/mL: 60 to 100%

## N#Cc1ccccc1Oc1nc(C#CCCNc2ncnc3ccccc23)cs1 [compound 221]
[1]
  pest or weed control at 125 ppm: 0 to 60%
[2]
  pest or weed control at 125 µg/mL: 60 to 100%
[3]
  pest or weed control at 125 µg/mL: 60 to 100%

## Fc1ccccc1Oc1nc(C#CCCNc2ncnc3ccccc23)cs1 [compound 224]
[1]
  pest or weed control at 125 ppm: 60 to 100%
[2]
  pest or weed control at 125 µg/mL: 60 to 100%
[3]
  pest or weed control at 125 µg/mL: 60 to 100%

## Fc1ccc(Oc2nc(C#CCCNc3ncnc4ccccc34)cs2)cc1 [compound 226]
[1]
  pest or weed control at 125 ppm: 60 to 100%
[2]
  pest or weed control at 125 µg/mL: 60 to 100%
[3]
  pest or weed control at 125 µg/mL: 60 to 100%

## C(#Cc1csc(Oc2ccccc2)n1)CCNc1ncnc2ccccc12 [compound 227]
[1]
  pest or weed control at 125 ppm: 60 to 100%
[2]
  pest or weed control at 125 µg/mL: 60 to 100%
[3]
  pest or weed control at 125 µg/mL: 60 to 100%

## C(#Cc1csc(N2CCCCC2)n1)CCNc1ncnc2ccccc12 [compound 228]
[1]
  pest or weed control at 125 ppm: 0 to 60%
[2]
  pest or weed control at 125 µg/mL: 0 to 60%
[3]
  pest or weed control at 125 µg/mL: 60 to 100%

## CC(CC#Cc1ccccc1)Nc1ncnc2sccc12 (stereo not drawn) [compound 229]
[1]
  pest or weed control at 125 ppm: 0 to 60%
[2]
  pest or weed control at 125 µg/mL: 60 to 100%
[3]
  pest or weed control at 125 µg/mL: 60 to 100%

## CC(CC#Cc1ccc(F)cc1)Nc1ncnc2sccc12 (stereo not drawn) [compound 230]
[1]
  pest or weed control at 125 ppm: 60 to 100%
[2]
  pest or weed control at 125 µg/mL: 60 to 100%
[3]
  pest or weed control at 125 µg/mL: 60 to 100%

## CC(CC#Cc1cccc(C(F)(F)F)c1)Nc1ncnc2sccc12 (stereo not drawn) [compound 234]
[1]
  pest or weed control at 125 ppm: 0 to 60%
[2]
  pest or weed control at 125 µg/mL: 60 to 100%
[3]
  pest or weed control at 125 µg/mL: 60 to 100%

## COc1ccccc1C#CCC(C)Nc1ncnc2sccc12 (stereo not drawn) [compound 236]
[1]
  pest or weed control at 125 ppm: 0 to 60%
[2]
  pest or weed control at 125 µg/mL: 60 to 100%
[3]
  pest or weed control at 125 µg/mL: 60 to 100%

## CC(CC#Cc1ccccc1S(C)(=O)=O)Nc1ncnc2sccc12 (stereo not drawn) [compound 237]
[1]
  pest or weed control at 125 ppm: 60 to 100%
[2]
  pest or weed control at 125 µg/mL: 60 to 100%
[3]
  pest or weed control at 125 µg/mL: 60 to 100%

## CC(CC#Cc1ccccc1OC(C)C)Nc1ncnc2sccc12 (stereo not drawn) [compound 242]
[1]
  pest or weed control at 125 ppm: 0 to 60%
[2]
  pest or weed control at 125 µg/mL: 60 to 100%
[3]
  pest or weed control at 125 µg/mL: 60 to 100%

## CC(CC#Cc1ccccc1CO)Nc1ncnc2sccc12 (stereo not drawn) [compound 243]
[1]
  pest or weed control at 125 ppm: 60 to 100%
[2]
  pest or weed control at 125 µg/mL: 60 to 100%
[3]
  pest or weed control at 125 µg/mL: 60 to 100%

## CC(CC#Cc1ccc(F)cc1CO)Nc1ncnc2sccc12 (stereo not drawn) [compound 244]
[1]
  pest or weed control at 125 ppm: 60 to 100%
[2]
  pest or weed control at 125 µg/mL: 60 to 100%
[3]
  pest or weed control at 125 µg/mL: 60 to 100%

## Cc1cc(Cl)ccc1C#CCC(C)Nc1ncnc2sccc12 (stereo not drawn) [compound 250]
[1]
  pest or weed control at 125 ppm: 60 to 100%
[2]
  pest or weed control at 125 µg/mL: 60 to 100%
[3]
  pest or weed control at 125 µg/mL: 60 to 100%
